Laboratory results: publication PMC12415213, “A genome-scale drug discovery pipeline uncovers therapeutic targets and a unique p97 allosteric binding site in Schistosoma mansoni” (Proceedings of the National Academy of Sciences of the …, 2025)
“Also recorded” adds a separate entry of the source. Read-outs that look alike come from different tables or passages of the source.

How the values were obtained:
adult S. mansoni = assay: Single-concentration (10 μM) treatment of adult worms, attachment and morphology; type: cell-based, Schistosoma mansoni; settings: in vitro culture
Experimental: (§1) DMSO). All selected compounds were obtained from commercial vendors (Medchemexpress, Selleck Chemicals, Sigma-Aldrich, ApexBio, Tocris, Santa Cruz Biotechnology, and Cayman Chemical Company) (Dataset S4) with […]
the activity of the desired compounds. Roughly 5 adult worm pairs were placed in 3mL Basch medium in a 12-well culture vessel, and incubated at 37° C, 5% CO2 for the length of the experiment. Compound was administered at D0, D1, and D2, media and drug refreshed every 24 hr. Worms were then allowed to remain in culture until D5, where a final assessment of worm attachment to tissue culture substate was made by light microscopy.
Observations on movement and morphology were also recorded. A negative control (0.1% DMSO) and positive control (PZQ; 10 µM in 0.1% DMSO) were included in each experiment, and each experiment was repeated in triplicate for validation. […]

H. sapiens p97 (P55072) = target: T1, H. sapiens p97 (P55072) (Homo sapiens, UniProt P55072); assay: Kinase-Glo ATP consumption assay, recombinant H. sapiens p97; type: biochemical; settings: 100 μM to 1 nM
T1 construct: purified recombinant full-length (1-806aa) H; 6xHis (N); made in house; host or cells: E. coli BL21 (DE3)
T1 sequence (P55072 whole entry): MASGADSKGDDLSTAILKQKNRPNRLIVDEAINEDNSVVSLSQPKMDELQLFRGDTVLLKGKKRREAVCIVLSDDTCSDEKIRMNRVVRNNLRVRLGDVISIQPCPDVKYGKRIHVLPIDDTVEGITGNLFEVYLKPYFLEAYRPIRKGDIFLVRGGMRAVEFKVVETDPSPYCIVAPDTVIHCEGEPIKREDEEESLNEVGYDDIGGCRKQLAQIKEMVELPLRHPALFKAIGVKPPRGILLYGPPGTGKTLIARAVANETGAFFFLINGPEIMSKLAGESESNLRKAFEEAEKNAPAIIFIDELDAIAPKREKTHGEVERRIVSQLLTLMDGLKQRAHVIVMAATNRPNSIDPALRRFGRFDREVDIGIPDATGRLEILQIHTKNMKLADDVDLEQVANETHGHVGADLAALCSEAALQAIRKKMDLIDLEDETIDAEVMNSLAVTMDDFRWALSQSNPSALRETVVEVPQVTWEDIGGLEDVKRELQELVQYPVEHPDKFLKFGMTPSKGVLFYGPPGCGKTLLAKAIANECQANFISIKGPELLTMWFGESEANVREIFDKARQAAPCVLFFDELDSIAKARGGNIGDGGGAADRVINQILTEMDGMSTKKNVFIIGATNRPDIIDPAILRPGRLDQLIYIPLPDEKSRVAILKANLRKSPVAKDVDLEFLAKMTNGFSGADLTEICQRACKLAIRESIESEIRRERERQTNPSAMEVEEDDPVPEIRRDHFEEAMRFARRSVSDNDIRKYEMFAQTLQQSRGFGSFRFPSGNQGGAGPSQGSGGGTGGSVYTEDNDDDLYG

[1] = target: S. mansoni p97 (Smp_018240) (Schistosoma mansoni, UniProt G4M0P7); type: biochemical
Chain of S. mansoni p97 (Smp_018240) (G4M0P7 entry or part of it): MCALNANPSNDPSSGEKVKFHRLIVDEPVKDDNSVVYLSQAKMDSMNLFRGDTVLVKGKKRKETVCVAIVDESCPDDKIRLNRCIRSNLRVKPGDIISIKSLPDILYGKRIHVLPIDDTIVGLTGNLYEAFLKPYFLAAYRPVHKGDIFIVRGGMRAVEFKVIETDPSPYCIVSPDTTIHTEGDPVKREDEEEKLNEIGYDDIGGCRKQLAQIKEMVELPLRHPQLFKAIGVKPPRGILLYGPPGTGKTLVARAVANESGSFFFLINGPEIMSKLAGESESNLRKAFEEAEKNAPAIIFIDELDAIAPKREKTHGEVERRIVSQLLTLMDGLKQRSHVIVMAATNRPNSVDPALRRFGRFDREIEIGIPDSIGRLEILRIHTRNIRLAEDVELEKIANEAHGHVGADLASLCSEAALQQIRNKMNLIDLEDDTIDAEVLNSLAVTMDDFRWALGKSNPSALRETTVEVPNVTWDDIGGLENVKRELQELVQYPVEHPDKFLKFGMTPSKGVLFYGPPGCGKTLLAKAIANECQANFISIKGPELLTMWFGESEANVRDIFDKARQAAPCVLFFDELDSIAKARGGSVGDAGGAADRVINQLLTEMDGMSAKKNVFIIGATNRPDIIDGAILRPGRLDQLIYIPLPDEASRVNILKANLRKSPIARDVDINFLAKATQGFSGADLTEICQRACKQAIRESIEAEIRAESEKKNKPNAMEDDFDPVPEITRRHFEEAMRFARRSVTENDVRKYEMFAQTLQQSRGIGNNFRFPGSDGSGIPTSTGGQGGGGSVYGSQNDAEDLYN
Experimental: (§2) Evaluation of p97’s ATPase activity and compound potency
For manual ATP consumption assays, 1 µM p97 was incubated with 1% DMSO or inhibitor (1% DMSO final) in assay buffer [50 mM Tris (pH 7.5), 20 mM MgCl2, 1 mM EDTA, 0.5 mM tris(2-carboxyethyl)phosphine (TCEP)] for 5 minutes prior to the addition of 20 µM ATP in a 384-well plate for a total reaction volume of 10 µL, and a final concentration of 500nM enzyme and 10 µM ATP. The reaction was allowed to proceed for 50 minutes at room temperature before adding equivalent volume of Kinase-Glo Plus reagent (Promega), and a further incubation of 10 minutes in the dark. Luminescence was read using a BioTek Synergy 2 plate reader […]
1 μM, 500 nM, 100 nM, 50 nM, 10 nM, 5 nM, 1 nM, and 0 nM) in triplicate, maintaining a concentration of 1% […]
were calculated using GraphPad Prism. […]

[2] = test system: S. mansoni vcp/p97 (Smp_018240); assay: High-throughput screen of S. mansoni p97 (Kinase-Glo, single concentration); type: biochemical, Schistosoma mansoni; settings: for Screen Inhibition (%): 10 μM compound, normalized to CB-5083 control; for inhibition of S. mansoni p97 function in the screen: high-throughput screen, 10 μM
Experimental: as §2
For manual ATP consumption assays, 1 µM p97 was incubated with 1% DMSO or inhibitor (1% DMSO final) in assay buffer [50 mM Tris (pH 7.5), 20 mM MgCl2, 1 mM EDTA, 0.5 mM tris(2-carboxyethyl)phosphine (TCEP)] for 5 minutes prior to the addition of 20 µM ATP in a 384-well plate for a total reaction volume of 10 µL, and a final concentration of 500nM enzyme and 10 µM ATP. The reaction was allowed to proceed for 50 minutes at room temperature before adding equivalent volume of Kinase-Glo Plus reagent (Promega), and a further incubation of 10 minutes in the dark. […]
High-throughput screening (HTS) assay
Kinase-Glo (Promega, part K1214) was purchased from Promega. Microtiter plates (384 wells) were purchased from Perkin Elmer. All chemicals included in the UTSW library were sourced from commercial sources […]
TimTec (500)] or UT Southwestern chemists (https://www.utsouthwestern.edu/research/core-facilities/high- […]
throughput-screening/libraries/). […]
concentration of 10 µM (0.2% DMSO). Luminescence was read by EnVision multimode plate reader (Perkin-Elmer). Assay conditions were consistent between manual and high-throughput assays [10 µM ATP, 50 mM Tris (pH 7.5), 20 mM MgCl2, 1 mM EDTA, 0.5 mM tris(2-carboxyethyl)phosphine (TCEP)]. The plates were then incubated for 50 min at room temperature before addition of Kinase-Glo reagent and further incubation in the dark for 10 minutes before reading luminescence. […]
were obtained to determine activity of compounds on the enzyme. […]

[3] = test system: K48 polyubiquitinated proteins in adult S. mansoni; assay: Western blot of K48 polyubiquitinated proteins in lysate of drug-treated worms; type: cell-based, Schistosoma mansoni; settings: adult worm lysate after 48 h of treatment
Experimental: as §1
the activity of the desired compounds. Roughly 5 adult worm pairs were placed in 3mL Basch medium in a 12-well culture vessel, and incubated at 37° C, 5% CO2 for the length of the experiment. […]
For drug treatment studies, 10 male adult worms (single or paired with females) were supplemented with either 0.1% DMSO or inhibitor (0.1% DMSO final). For all experiments assessing on-target effects of potential parasite […]
After 48 hr, male parasites were separated […]
further processing. Male worm samples were homogenized with a pestle in 50 µL lysis buffer containing 2X […]
(Roche, cOmplete Mini, EDTA-free Tablets) and 10 mM DTT. The lysates were then sonicated on high for 5 min (30 sec on, 30 sec off) using a Bioruptor UCD-200. Lysates were centrifuged for 5 min at 10,000 g to remove […]
debris. Total protein was measured using the Detergent Compatible Bradford Assay (Pierce). 50 µg of protein samples denatured in SDS Sample buffer (95°C for 5 min) were separated on a Bio-Rad 4-20% TGX Stain-Free gel along with Precision Plus Protein Dual Color Standards (Bio-Rad) as a marker. Proteins were then transferred to a nitrocellulose membrane (Bio-Rad). The membrane was blocked in a 1:5 solution of Li-Cor Odyssey Blocking buffer in PBST for 1 hr before being immunoblotted overnight at 4°C with 1:500 K48-linkage Specific […]
(1:10,000) (Developmental Studies Hybridoma Bank, JLA20) diluted in a 1:5 solution of Li-Cor Odyssey Blocking buffer in PBST. The membrane was washed 3x in TBST and then incubated in 1:5 Li-Cor Odyssey […]
in TBST 3x before being imaged on a LiCor Odyssey Infrared Imager. […]

[4] = recombinant Hsp97, Kinase-Glo, NA = no notable effect on the enzyme at tested concentrations, >100 = IC50 predicted above 100 μM or maximal inhibition not achieved
[5] = H. sapiens p97 IC50 versus S. mansoni p97 IC50
[6] = recombinant full-length enzyme, Kinase-Glo
[7] = recombinant full-length enzyme, Kinase-Glo, 100 μM to 1 nM

SMILES | phenotype of adult worms after treatment (adult S. mansoni) | IC50 (H. sapiens p97 (P55072); [4]) [µM] | IC50 [1] [µM] | Fold Selectivity (parasite enzyme over human enzyme) [1, 5] [fold] | Screen Inhibition (%) [2] [%] | also measured
O=C(C#Cc1cccc(Cl)c1)Nc1ccc2oc(-c3ccccn3)nc2c1 [Compound 735] | still active on worms | 7.3 ± 0.66 | 11 ± 0.47 | 0.70 | – | –
Cc1ccnc(-c2nc3cc(NC(=O)C#Cc4ccncc4)ccc3o2)c1 [Compound 805] | – | 0.14 ± 0.078 | 0.17 ± 0.092 | 0.80 | – | –
O=C(C#Cc1ccccc1)Nc1ccc2oc(-c3ccccc3)nc2c1 [Compound 245] | did cause detachment, it did not lead to parasite death | – | 3.8 ± 0.19 | – | 36 | –
c1ccc(CNc2nc(NCc3ccccc3)c3ccccc3n2)cc1 [DbeQ, reference compound] | activity on the worms | – | – | – | – | accumulation of K48 polyubiquitinated proteins by western blot [3]: did not observe the same accumulation; IC50 (H. sapiens p97 (P55072); [6]): 0.91 ± 0.39 µM; IC50 [1, 7]: 12 µM
Cc1cccnc1-c1nc2cc(NC(=O)C#Cc3ccncc3)ccc2o1 [Compound 804] | – | 0.14 ± 0.062 | 0.19 ± 0.063 | 0.70 | – | –
O=C(C#Cc1ccccc1)Nc1ccc2oc(-c3cccnc3)nc2c1 [Compound 244] | did not have any adverse effects on worm health and survival | – | – | – | 16 | –
O=C(C#Cc1ccccc1)Nc1ccc2oc(-c3ccncc3)nc2c1 [Compound 242] | led to death in adult parasites; also recorded: ultimately leading to their death | 12 ± 0.31 | 1.4 ± 0.11 | 8.6 | 47 | –
O=C(C=Cc1ccccc1)Nc1ccc2oc(-c3ccccc3)nc2c1 [Compound 135] | – | – | – | – | 1.1 | inhibition of S. mansoni p97 function in the screen [2]: inactive
Cc1cccc(-c2nc3cc(NC(=O)C#Cc4ccncc4)ccc3o2)n1 [Compound 807] | – | 0.49 ± 0.057 | 0.67 ± 0.17 | 0.70 | – | –
COc1cccc2c(NCc3ccccc3)nc(-n3c(N)nc4ccccc43)nc12 [ML240, reference compound] | killed parasites quickly | – | – | – | – | accumulation of K48 polyubiquitinated proteins by western blot [3]: did not observe the same accumulation; IC50 (H. sapiens p97 (P55072); [6]): 0.33 ± 0.061 µM; Fold Selectivity (parasite enzyme over human enzyme) [1]: ~ fivefold; IC50 [1, 7]: 0.066 ± 0.0097 µM
O=C(C#Cc1ccccc1)Nc1ccc2oc(-c3ccccn3)nc2c1 [Compound 243] | led to death in adult parasites; also recorded: ultimately leading to their death | 20 ± 0.54 | 2.1 ± 0.75 | – | 46 | Fold Selectivity (parasite enzyme over human enzyme) [1]: 9.5 fold
COc1ccc(C#CC(=O)Nc2ccc3oc(-c4ccccn4)nc3c2)cc1 [Compound 734] | decreased activity on the worms | 83 ± 6.5 | 48 ± 2.6 | 1.7 | – | –
O=C(/C=C\c1ccccc1)Nc1ccc2oc(-c3ccccc3)nc2c1 [Compound 324] | – | – | – | – | 1.1 | inhibition of S. mansoni p97 function in the screen [2]: inactive
Cc1ccc(-c2nc3cc(NC(=O)C#Cc4ccncc4)ccc3o2)nc1 [Compound 806] | – | 0.51 ± 0.16 | 0.47 ± 0.17 | 1.1 | – | –
O=C(C#CC1CC1)Nc1ccc2oc(-c3ccccn3)nc2c1 [Compound 732] | still active on worms | – | – | – | – | –
CC(C)N1CCN(CCNC2CCN(c3cccc(-c4cc5cc(F)ccc5[nH]4)c3)CC2)CC1 [UPCDC-30245, reference compound] | effective | – | – | – | – | accumulation of K48 polyubiquitinated proteins by western blot [3]: did not see significant increases in K48 abundance; IC50 (H. sapiens p97 (P55072); [6]): 0.97 ± 0.067 µM; selectivity between schistosome and human p97 [1]: selective in favor of the human enzyme; IC50 [1, 7]: 4.1 µM
O=C(C#Cc1cccnc1)Nc1ccc2oc(-c3ccccn3)nc2c1 [Compound 738] | death of the parasites | 0.78 ± 0.14 | 0.42 ± 0.057 | 1.9 | – | –
O=C(CCc1ccccc1)Nc1ccc2oc(-c3ccccn3)nc2c1 [Compound 326] | – | – | – | – | 2.2 | inhibition of S. mansoni p97 function in the screen [2]: inactive
CC1(C)C(N(O)C(=O)Nc2ccc(Cl)cc2)N(c2ccc(Cl)cc2)C(=O)N1CC(=O)N/N=C/C=C/c1ccc([N+](=O)[O-])o1 (stereo not shown) [Eeyarestatin I, reference compound] | effective | – | – | – | – | accumulation of K48 polyubiquitinated proteins by western blot [3]: did not see significant increases in K48 abundance
O=C(C#Cc1ccccn1)Nc1ccc2oc(-c3ccccn3)nc2c1 [Compound 737] | decreased activity on the worms | 13 ± 2.2 | 3 ± 0.41 | 4.3 | – | –
O=C(C#Cc1ccc(Cl)cc1)Nc1ccc2oc(-c3ccccn3)nc2c1 [Compound 736] | decreased activity on the worms | 6.7 ± 0.055 | 5.9 ± 1.3 | 1.1 | – | –
